Data as given in publication PMC6394990, “Detailed characterization of the solution kinetics and thermodynamics of biotin, biocytin and HABA binding to avidin and streptavidin” (PLoS ONE, 2019).
Several values for one entry are separate records, joined by “and”; a condition that tells them apart may be missing. Equal entries are not always repeated. Where two headings read alike, the source gives them in different places.

Assays:
[1] = Quantum yields (QY), unbound probe; assay type: physicochemical; details: unbound dye
Method: (§1) The lifetimes (τ), steady state anisotropies (rss), time-resolved anisotropies (rt) and quantum yields (QY) of the complexes (at 20 ± 0.1°C and pH 8) were collected with a dye-labeled B7 probe concentration of 20–40 nM and 1040–2080 nM of either protein (AV or SAV) to ensure that only one binding site in the tetramer was filled with a ligand (AB1 filling model).
The QY values were obtained by using a reference fluorophore of known quantum yield and were calculated according to Parker and Rees, where the reference dye was fluorescein in 0.1N sodium hydroxide solution [46]. The emission fluorescence scans were collected from 480 nm to 700 nm with the excitation light set at 460 nm provided by the xenon arc lamp described above. These measurements were made on the AB1 complexes at high protein concentration.

[2] = Fluorescence lifetimes, unbound probe; assay type: physicochemical; details: unbound dye; t for BFl and BcO, average lifetime for B-DNAds*Fl; in ns
Method: as §1
The lifetimes were collected in a FluoTime100 fluorescence spectrometer (PicoQuant, GmbH, Berlin, Germany) with the excitation light source provided by a picosecond pulsed diode laser (PicoQuant, GmbH, Berlin, Germany) at 470 nm and 20 MHz. The emission was collected at 520 nm through a non-fluorescing 520 nm interference filter (Oriel Corp., Stratford, CT) followed by a liquid filter of 1cm path length containing 24 mM acetate buffered dichromate at pH 4, between the sample and detector to eliminate traces of excitation light. The fluorescence decays were fit by a nonlinear least-squares minimization based on the Marquardt algorithm embedded in the Fluofit software (PicoQuant GmbH). […] The PicoQuant G factor was calculated according to: G = ∫HV(t)dt/∫HH(t)dt, where HV(t) and HH(t) were the decays collected with the emission polarizer selecting vertical and horizontal E-vector passing orientations, respectively, and the excitation polarizer set at horizontally position.

streptavidin (SAV) [3] = target: T1, streptavidin (SAV) (Streptomyces avidinii, UniProt P22629); assay: Steady-state anisotropy (rss), SAV complex; assay type: physicochemical
T1 construct: purchased Sigma Aldrich (St. Louis, MO)
Method: as §1
The rss measurements were collected using the Giblin-Parkhurst modification of the Wampler-Desa method as described previously. The fluorescence signal was detected in a model A-1010 Alphascan fluorimeter (Photon Technologies, Inc., Birmingham, NJ) equipped with an R928 PMT (Hamamatsu, Bridgewater, NJ). The excitation was provided by an Ar^+ ion laser (Coherent Innova 70–4 Argon, Santa Clara, CA) at 488 nm and 5–10 mW of power incident on the sample. A photoelastic modulator (PEM-80; HINDS International, Inc., Portland, OR) was placed between the laser source and the sample compartment with a retardation level of 1.22π, and the PEM stress axis orientated 45° with respect to the E vector of the laser beam. Two signals were acquired with the PEM alternating between “on” and “off” positions for 10 seconds and the data fitted to a least squared straight line to minimize noise. A minimum of six of these independent measurements were averaged to acquire the rss values. The fluorimeter G factor was determined using a film polarizer and analyzer with an excitation at 488 nm provided by a xenon arc lamp (model A1010, Photon Technologies Inc, Princeton, NJ). The dissociation reactions of dye-labeled B7 and protein complexes were monitored by fluorescence changes and were also collected in the fluorimeter described above.

streptavidin (SAV) [4] = target: T1, streptavidin (SAV); assay: Stopped-flow association kinetics of dye-labeled biotin probes binding to streptavidin (F(t), rF(t); Arrhenius plots/global fitting); set-up: kcal/mol (from Arrhenius slope) / Eon for BFl: unit not given here; details: for half-time of association, rF¯(t): probe 20 nM
Method: These reactions were carried out in a buffered solution of 10 mM Tris-HCl, 100 mM KCl, 2.5 mM MgCl2 and 1 mM CaCl2 at pH 8 and only AV-BcO reactions included pH 9 and 10. […] The deglycosylation of AV (for comparative association reactions) was carried out using the provided standard protocol with endoglycosidase H [47], both with and without incubation of a denaturant solution (2% SDS and 1M 2-mercaptoethanol).
The reactions were collected with the SF instrument, described previously. […] The AC(t) and DC(t) data were baseline corrected before obtaining the signal ratio (Eq 4) as a function of time (ρt).
The constant AGain is the instrumental amplitude gain and was evaluated by solving ρ(t) using the known steady state anisotropy (rss) of the complexes which is equivalent to the r(t) at t = ∞; and H, obtained from the equivalent grating factor (G) for the filters and photo multiplier tubes in the SF. For the probes used in here G was 0.82 and H = (1-G)/(1+G) = 0.099. Knowing Again and H, the AC(t) and DC(t) signals can be solved for r(t) and F(t) (Eqs 4 and 5) and the normalized fluorescence, F¯(t) , and corrected fluorescence anisotropy, rF¯(t), were obtained when F¯(0) and rF¯(0) were scaled to 1 at t = 0.
The F¯(t) (Eq 6) is equivalent to (I||) + 2 (I⊥) and proportional to quantum yield (QYi), molar absorptivity (εi) and to the formation or disappearance of the emitting species Xi(t); and rF¯(t) including the steady state anisotropies (rss) of each fluorescent species (Eq 7).
The possible reaction models were discriminated by the squared residuals of the observed and calculated association traces of both fluorescence and anisotropy fluorescence signals, F¯(t) and rF¯(t) , respectively.

T1 sequence (P22629 25-183): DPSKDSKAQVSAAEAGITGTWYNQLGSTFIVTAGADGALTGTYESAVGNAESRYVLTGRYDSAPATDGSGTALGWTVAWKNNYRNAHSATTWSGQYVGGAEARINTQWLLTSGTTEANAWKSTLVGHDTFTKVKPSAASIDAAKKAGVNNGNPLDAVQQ

Compound: NC(CCCCNC(=O)CCCC[C@@H]1SC[C@@H]2NC(=O)N[C@@H]21)C(=O)NCCCCCNC(=O)c1ccc(-c2c3cc(F)c(=O)cc-3oc3cc(O)c(F)cc23)c(C(=O)O)c1 (stereo partly drawn) [BcO, Oregon green 488 Biocytin]
- QY [1]: 0.91 and 0.91 ± 0.02
- t (1), fluorescence lifetime [2]: 3.75 ± 0.04
- Steady State Anisotropy rss (streptavidin (SAV) [3]; SAV complex (AB1), 20°C): 0.053 ± 0.005
- SAV-increment (%) (streptavidin (SAV) [3]; increase of rss against unbound): 130.4%
- rss, + SAV (streptavidin (SAV) [3]; steady-state anisotropy): 0.053
- kon binding to SAV, fold faster than binding to AV (streptavidin (SAV) [4]; 25°C): 3.2 X
- rate at 4C (logarithmic value) (streptavidin (SAV) [4]; 277.15 K, follows from the SAV line (m2, b2), protein not printed in the line): 16.3
- halftime, F¯(t) (streptavidin (SAV) [4]; BcO 20 nM, SAV 200 nM, 10°C): 200.6 ms
- halftime, rF¯(t) (streptavidin (SAV) [4]; BcO 20 nM, SAV 200 nM, 10°C): 201.4 ms
- halftime, r¯(t) (streptavidin (SAV) [4]; BcO 20 nM, SAV 200 nM, 10°C): 332.7 ms
- b of the line y = m2x+b2 (streptavidin (SAV) [4]; SAV 2, reacting with BcO): 27.125
- slope, m of the line y = m2x+b2 (streptavidin (SAV) [4]; SAV 2, reacting with BcO, x = 1/Temp): -2995.5
- ln(k) (streptavidin (SAV) [4]; SAV, 10 (283.15 K)): 16.7
- k(average) (streptavidin (SAV) [4]; SAV, 10 (283.15 K), k (full value)): 1.73E+07
- k(average) (streptavidin (SAV) [4]; SAV, 10 (283.15 K), k (scaled)): 17.3
- ln(k) (streptavidin (SAV) [4]; SAV, 15 (288.15 K)): 16.8
- k(average) (streptavidin (SAV) [4]; SAV, 15 (288.15 K), k (full value)): 2.00E+07
- k(average) (streptavidin (SAV) [4]; SAV, 15 (288.15 K), k (scaled)): 20
- ln(k) (streptavidin (SAV) [4]; SAV, 20 (293.15 K)): 17.0
- k(average) (streptavidin (SAV) [4]; SAV, 20 (293.15 K), k (full value)): 2.40E+07
- k(average) (streptavidin (SAV) [4]; SAV, 20 (293.15 K), k (scaled)): 24
- ln(k) (streptavidin (SAV) [4]; SAV, 25 (298.15 K)): 17.2
- k(average) (streptavidin (SAV) [4]; SAV, 25 (298.15 K), k (full value)): 3.03E+07
- k(average) (streptavidin (SAV) [4]; SAV, 25 (298.15 K), k (scaled)): 30.3
- Ea^Forward (streptavidin (SAV) [4]; SAV, pH 8): 6.2 ± 0.4 kcal/mol
- ΔG^ǂ (streptavidin (SAV) [4]; SAV, pH 8, forward): 3.9 ± 0.4 kcal/mol
- ΔS^ǂ (streptavidin (SAV) [4]; SAV, pH 8, forward): 7.8 ± 0.4 cal/°K·mol
- kcal/mol (from Arrhenius slope) (streptavidin (SAV) [4]; SAV, ph8): -9583
- slope (Arrhenius linear fit) (streptavidin (SAV) [4]; SAV, ph8): -4823.1
- kon (streptavidin (SAV) [4]; pH 8, SAV, pH 8, 10°C, read-out: kon): 1.73e+07 ± 600000 M⁻¹ s⁻¹
- kon (streptavidin (SAV) [4]; pH 8, SAV, pH 8, 15°C, read-out: kon): 2e+07 ± 1.2e+06 M⁻¹ s⁻¹
- kon (streptavidin (SAV) [4]; pH 8, SAV, pH 8, 20°C, read-out: kon): 2.4e+07 ± 1.6e+06 M⁻¹ s⁻¹
- kon (streptavidin (SAV) [4]; pH 8, SAV, pH 8, 25°C, read-out: kon): 3.03e+07 ± 2e+06 M⁻¹ s⁻¹
- half-time of association, rF¯(t) (streptavidin (SAV) [4]; SAV 200 nM, pH 8, 10°C): 202 ms
- half-time of association, rF¯(t) (streptavidin (SAV) [4]; SAV 200 nM, pH 8, 15°C): 111 ms
- half-time of association, rF¯(t) (streptavidin (SAV) [4]; SAV 200 nM, pH 8, 20°C): 79 ms
- kon (streptavidin (SAV) [4]; read-out: kon, mono-exponential fit of F¯(t), BcO 20 nM, SAV 200 nM, 10°C): 1.73e+07 M⁻¹ s⁻¹
- kon (streptavidin (SAV) [4]; read-out: kon, mono-exponential fit of rF¯(t), BcO 20 nM, SAV 200 nM, 10°C): 1.72e+07 M⁻¹ s⁻¹
- kon (streptavidin (SAV) [4]; read-out: kon, mono-exponential fit of uncorrected anisotropy r¯(t), BcO 20 nM, SAV 200 nM, 10°C, ill-fitted signal): 1.04e+07 M⁻¹ s⁻¹
